Nine compounds from ChEMBL document CHEMBL1914350, “Convolutamines I and J, antitrypanosomal alkaloids from the bryozoan Amathia tortusa” (Bioorg Med Chem, 2011) can be followed below.

Data set [1] can be described thus: Lipophilicity, log P of the compound. The data set is classed as physicochemical. The following applies: octanol/water.
In data set [2] the test system is Trypanosoma brucei brucei. Put plainly: Antitrypanosomal activity against Trypanosoma brucei brucei after 48 hrs by alamar blue assay. The data set is classed as functional, organism-based.
For data set [3], the system named is HEK293. Put plainly: Cytotoxicity against human HEK293 cells at 41 uM after 48 hrs by alamar blue assay. The data set is classed as cell-based. The note with it: hek293, 48 h.
Data set [4] can be described thus: Antimitotic activity in sea urchins assessed as inhibition of fertilized egg cell division. The data set is classed as functional, Echinoidea.
In the next data set the test system is Haemonchus contortus. In words: Antiparasitic activity against Haemonchus contortus assessed as inhibition of free-living larval stage. The data set is classed as functional.
In data set [5] the test system is HEK293. Put plainly: Cytotoxicity against human HEK293 cells after 48 hrs by alamar blue assay. The following applies: HEK293, 48 h. The data set is classed as cell-based.
A further data set has as its system P388. In words: Cytotoxicity against mouse P388 cells. The data set is classed as functional, cell-based.
Data set [6] relates to HEK293. In words: Cytotoxicity against human HEK293 cells at 70 uM after 48 hrs by alamar blue assay. The data set is classed as cell-based. The note with it: hek293, 48 h.
Data set [7] can be described thus: Selectivity index, ratio of IC50 for human HEK293 cells to IC50 for Trypanosoma brucei brucei. The data set is classed as toxicity, cell-based. The note with it: HEK293 cells versus Trypanosoma brucei brucei, read-out: Ratio IC50.

Each structure is given as a SMILES string. pIC50: −log10 of the molar value. Values after ≈ are worked out from the molar mass of the structure shown.

With `COc1c(Br)cc(Br)c(CCN2C=[N+](C)CCC2)c1Br` [CONVOLUTAMINE J], the logP in [1] turned out to be 3.9. Besides, the pIC50 in data set [2] was 4.86. For the same compound, the Activity entry in the data set with HEK293 [3] was “Non-toxic”.
Regarding `CNCCc1c(Br)cc(Br)c(OC)c1Br` [CONVOLUTAMINE F], the IC50 in data set [4] was 81 µg/mL (≈ 202 µM).
For `CNCCc1c(Br)c(Br)c(Br)c(OC)c1OC` [CONVOLUTAMINE H], the LD99 in the data set on Haemonchus contortus was 0.2 µg/mL.
Consider `N=C(N)c1ccc(OCCCCCOc2ccc(C(=N)N)cc2)cc1` [PENTAMIDINE], for which the pIC50 in data set [2] was 7.82; in the data set with HEK293 [5], 4.15.
`COc1ccc(Br)c(CCN(C)CC(C)O)c1Br` (stereo unspecified) [CONVOLUTAMINE B] came in with an IC50 with P388 of 1.4 µg/mL (≈ 3.67 µM).
Still for that read-out and setting: the same measure for `COc1c(Br)cc(Br)c(CCN2COC(C)C2)c1Br` (stereo unspecified) [CONVOLUTAMINE D]: 1.4 µg/mL (≈ 3.06 µM); for `COc1c(Br)cc(Br)c(CCN(C)CC(C)O)c1Br` (stereo unspecified) [CONVOLUTAMINE A]: 1.4 µg/mL (≈ 3.04 µM).
In [2], `N=C(N)c1ccc(/N=N/Nc2ccc(C(=N)N)cc2)cc1` [DIMINAZENE] showed a pIC50 of 7.15. The Activity entry in the data set with HEK293 [6] is “Non-toxic”.
`COc1c(Br)cc(Br)c(CCNCCCN(C)C)c1Br` [CONVOLUTAMINE I]: the logP in [1] was found to be 4.1. The pIC50 was 5.96 in [2] and 4.66 with HEK293 [5]. Besides, in data set [7], the selectivity ratio worked out at 18.3.
